One may read the LD50 as the dose at which mortality reaches 50%. A lower LD50 goes with a more toxic substance.

Read-outs that look alike come from different tables or passages of the source.

The nature of one data set: Skin irritation. Particulars: in vivo. The source says:
(§1) Skin irritation is also an important consideration for a solvent.

Data set [1] in a line: Coated metal coupon cleaning, gravimetric. As to conditions: Krytox, 15 minute immersion, 15 mL. On the procedure:
(§2) A sample comprising 25 volume percent (A.) 4-bromo-3-chloro-3,4,4-trifluoro-1-butene and 75 volume percent (B.) 1-chloro-2,2,2-trifluoroethyl difluoromethyl ether was added to several beakers, each containing a metal coupon completely coated with one of the following materials: Mil Spec 83282 hydraulic oil, Mil Spec 7808 engine oil, Krytox fluorocarbon grease and Mil Spec 81322 aviation grease. Two batches were subjected to 15 minute immersion with 15 mL of solvent mixture but one was exposed to ultrasonic vibrations and the other kept static. Afterwards, the coupons were removed and weighed for gravimetric analysis.
as §2, with “50” for “25”, “50” for “75”
(§3) Two batches were subjected to 15 minute immersion with 15 mL of solvent mixture but one was exposed to ultrasonic vibrations and the other kept static. Afterwards, the coupons were removed and weighed for gravimetric analysis.
The compounds (A) 4-bromo-3-chloro-3,4,4-trifluoro-1-butene and (B) 1-chloro-2,2,2-trifluoroethyl difluoromethyl ether, were mixed 50:50 by volume and tested to remove Krytox. The individual components, A and B, remove 17.0% and 98.7%, respectively, of this contaminant after 15 min. with ultrasonic treatment. The mixture removed 99.3% of the same contaminant under the same conditions.

For another data set, the system named is Chinese hamster. In words: In vitro genotoxicity. Particulars: in vitro Chinese hamster oocytes.
Text: as §1

The next data set can be described thus: Ames mutagenicity assay.
Text: as §1
In general terms: The Ames test uses bacterial strains that need an amino acid and regain growth without it when mutated back.

The next data set can be described thus: LD50. As to conditions: in vivo.
Text: Toxicity is yet another factor which must be considered when selecting second-generation replacement solvents. Parameters such as the lethal dose 50 (LD50), lethal concentration 50 (LC50), cardiac sensitization, skin irritation, and mutagenicity (e.g., via the Ames test) can be used as measures. LDn or LCn abbreviation, where n is the percent lethality, is used for the dose of a toxicant lethal to n % of a test population. […] Cardiac sensitization is a measure of the ability of a compound to cause cardiac arrhythmia under stress.
as §1

For data set [2] the following is noted: listed; cited from earlier work.
Data set [3] is described as follows: Coated metal coupon cleaning, gravimetric. As to conditions: 15 minute immersion, 15 mL. The protocol:
as §2
as §2, with “50” for “25”, “50” for “75”
as §3

For `C=CC(F)(Cl)C(F)(F)Br` (stereo not drawn) [A, 4-bromo-3-chloro-3,4,4-trifluoro-1-butene], the skin irritation result in the data set “Skin irritation” is on record as “moderate to non-irritants”. In data set [1] (Ultrasonic), this compound came in with a percent contaminant removed of 17.0%. For the same compound, the genotoxicity result with Chinese hamster is “not genotoxic”. Also, the Ames mutagenicity assay entry in “Ames mutagenicity assay” is listed as “negative”. The same compound showed an LD50 in the data set “LD50” of over 40000 mg/kg.

As for `FC(F)(Cl)C(F)(Cl)Cl` [CFC-113, 1,1,2-trichloro-1,2,2-trifluoroethane], the percent contaminant removed was 36.2% in data set [1] (Static); 97.7% in data set [1] (Ultrasonic); 100% in data set [3] (7808 oil, Static); 99.2% in data set [3] (7808 oil, Ultrasonic); 24.1% in data set [3] (81322 grease, Static); 94.8% in data set [3] (81322 grease, Ultrasonic). Besides, the percent contaminant removed in data set [3] (83282 oil, Static) is given as 100%; in data set [3] (83282 oil, Ultrasonic), 100%. Also, in data set [2], the skin irritation entry is “mild irritant”.

As for `FC(F)OC(Cl)C(F)(F)F` (stereo not drawn) [Compound B, 1-chloro-2,2,2 trifluoroethyl difluoromethyl ether], the skin irritation result in “Skin irritation” is listed as “moderate to non-irritants”. The percent contaminant removed in data set [1] (Ultrasonic) stood at 98.7%. Besides, the genotoxicity result in the data set with Chinese hamster was “not genotoxic”. For the same compound, in “Ames mutagenicity assay”, the Ames mutagenicity assay result was “negative”. In addition, the LD50 in the data set “LD50” came to 8100 mg/kg.

`FC(F)OC(F)(F)C(F)Cl` (stereo not drawn) [Compound C, 2-chloro-1,1,2-trifluoroethyl difluoromethyl ether]: the skin irritation entry in the data set “Skin irritation” is on record as “moderate to non-irritants”. The genotoxicity result with Chinese hamster is on record as “not genotoxic”. Further, the Ames mutagenicity assay entry in the data set “Ames mutagenicity assay” is “negative”. For the same compound, the LD50 in the data set “LD50” is 13000 mg/kg.

Regarding `COC(C(F)(F)F)C(F)(F)F` [E, methyl 2,2,2-trifluoroethyl-1-(trifluoromethyl)ether], the skin irritation entry in “Skin irritation” is reported as “moderate to non-irritants”. For the same compound, the genotoxicity result in the data set on Chinese hamster is recorded as “not genotoxic”. Further, the Ames mutagenicity assay entry in “Ames mutagenicity assay” is reported as “negative”. Also, the LD50 in “LD50” was over 40000 mg/kg.

The record behind these values is US7429557B2, “Replacement solvents having improved properties and methods of using the same” (Mainstream Engineering Corporation, priority 2005, dated 2008).
